Data: patent US20100022491A1, “4-HYDROXY-2-OXO-2,3-DIHYDRO-1,3-BENZOTHIAZOL-7YL COMPOUNDS FOR MODULATION OF B2-ADRENORECEPTOR ACTIVITY” (ASTRAZENECA AB, priority 2006, published 2010)
Counter-ions that a name gives are not always drawn.

Experiments:
[1] = biological target: T1, recombinant human adrenergic beta 1 receptors (Homo sapiens, UniProt P08588); assay: Adrenergic β1 selectivity binding assay ([125I]-Iodocyanopindolol); details: inhibition of [125I]-Iodocyanopindolol (0.036 nM) binding; read-out: β1 bind p IC50 (converted)
T1 construct: purchased Euroscreen
T1 sequence (P08588 whole entry): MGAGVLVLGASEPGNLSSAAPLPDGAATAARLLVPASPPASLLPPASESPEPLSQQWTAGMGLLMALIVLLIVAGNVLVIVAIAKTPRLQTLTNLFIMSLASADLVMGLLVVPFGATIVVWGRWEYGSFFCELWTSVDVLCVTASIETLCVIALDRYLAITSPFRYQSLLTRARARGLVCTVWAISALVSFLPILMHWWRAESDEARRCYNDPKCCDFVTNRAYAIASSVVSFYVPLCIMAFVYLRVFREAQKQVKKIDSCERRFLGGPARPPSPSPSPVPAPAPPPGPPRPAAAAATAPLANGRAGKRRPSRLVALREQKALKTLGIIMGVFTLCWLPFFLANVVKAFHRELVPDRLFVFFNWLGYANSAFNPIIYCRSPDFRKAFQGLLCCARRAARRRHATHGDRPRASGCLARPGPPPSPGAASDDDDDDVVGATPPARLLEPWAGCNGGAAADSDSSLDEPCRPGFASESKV
Procedure: (§1) Membranes containing recombinant human adrenergic beta 1 receptors were obtained from Euroscreen. These were diluted in Assay Buffer (50 mM HEPES, 1 mM EDTA, 120 mM NaCl, 0.1% gelatin, pH 7.4) to provide a final concentration of membranes that gave a clear window between maximum and minimum specific binding.
(§2) Assays were performed in U-bottomed 96-well polypropylene plates. 10 μL [^125I]-Iodocyanopindolol (0.036 nM final concentration) and 10 μL of test compound (10× final concentration) were added to each test well. For each assay plate 8 replicates were obtained for [^125I]-Iodocyanopindolol binding in the presence of 10 μL vehicle (10% (v/v) DMSO in Assay Buffer; defining maximum binding) or 10 μL Propranolol (10 μM final concentration; defining non-specific binding (NSB)). Membranes were then added to achieve a final volume of 100 μL. The plates were incubated for 2 hours at room temperature and then filtered onto PEI coated GF/B filter plates, pre-soaked for 1 hour in Assay Buffer, using a 96-well plate Tomtec cell harvester. Five washes with 250 μL wash buffer (50 mM HEPES, 1 mM EDTA, 120 mM NaCl, pH 7.4) were performed at 4° C. to remove unbound radioactivity. The plates were dried then sealed from underneath using Packard plate sealers and MicroScint-O (50 μL) was added to each well. The plates were sealed (TopSeal A) and filter-bound radioactivity was measured with a scintillation counter (TopCount, Packard BioScience) using a 3-minute counting protocol.
(§3) Total specific binding (B0) was determined by subtracting the mean NSB from the mean maximum binding. NSB values were also subtracted from values from all other wells. […] Data was fitted to a four parameter logistic equation to determine the compound potency, which was expressed as pIC50 (negative log molar concentration inducing 50% inhibition of [^125I]-Iodocyanopindolol binding).

Adrenergic β2 = biological target: T2, Adrenergic β2 (Homo sapiens, UniProt P07550); assay: Adrenergic β2 mediated cAMP production in H292 cells; assay type: cell-based; details: for EC50: H292 cells, cAMP by AlphaScreen, 60 minutes at room temperature, rolipram 300 μM, read-out: β2 pEC50 (converted); for β2 Int Act: Intrinsic Activity as a fraction relative to the maximum activity determined for formoterol
T2 construct: Adherent H292 cells were removed from tissue culture flasks; endogenous in cells; host or cells: H292 cells
T2 sequence (P07550 whole entry): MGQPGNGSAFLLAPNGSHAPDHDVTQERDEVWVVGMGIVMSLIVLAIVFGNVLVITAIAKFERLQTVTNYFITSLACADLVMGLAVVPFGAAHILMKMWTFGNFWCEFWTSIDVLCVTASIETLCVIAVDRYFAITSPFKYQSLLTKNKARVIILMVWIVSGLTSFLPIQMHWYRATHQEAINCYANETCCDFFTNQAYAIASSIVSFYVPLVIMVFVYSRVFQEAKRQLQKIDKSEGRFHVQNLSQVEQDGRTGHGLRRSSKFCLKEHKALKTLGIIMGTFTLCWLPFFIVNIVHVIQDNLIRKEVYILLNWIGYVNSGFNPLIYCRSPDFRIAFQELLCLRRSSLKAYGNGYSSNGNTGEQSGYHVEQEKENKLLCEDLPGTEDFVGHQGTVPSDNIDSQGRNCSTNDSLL
Procedure: Adrenergic β2 mediated cAMP production
H292 cells were grown in 225 cm2 flasks incubator at 37° C., 5% CO2 in RPMI medium containing, 10% (v/v) FBS (foetal bovine serum) and 2 mM L-glutamine.
Adherent H292 cells were removed from tissue culture flasks by treatment with Accutase™ cell detachment solution for 15 minutes. Flasks were incubated for 15 minutes in a humidified incubator at 37° C., 5% CO2. Detached cells were re-suspended in RPMI media (containing 10% (v/v) FBS and 2 mM L-glutamine) at 0.05×10^6 cells per mL. 5000 cells in 100 μL were added to each well of a tissue-culture-treated 96-well plate and the cells incubated overnight in a humidified incubator at 37° C., 5% CO2. The culture media was removed and cells were washed twice with 100 μL assay buffer and replaced with 50 μL assay buffer (HBSS solution containing 10 mM HEPES pH7.4 and 5 mM glucose). Cells were rested at room temperature for 20 minutes after which time 25 μL of rolipram (1.2 mM made up in assay buffer containing 2.4% (v/v) dimethylsulphoxide) was added. Cells were incubated with rolipram for 10 minutes after which time test compounds were added and the cells were incubated for 60 minutes at room temperature. The final rolipram concentration in the assay was 300 μM and final vehicle concentration was 1.6% (v/v) dimethylsulphoxide. The reaction was stopped by removing supernatants, washing once with 100 μL assay buffer and replacing with 50 μL lysis buffer. The cell monolayer was frozen at −80° C. for 30 minutes (or overnight).
The concentration of cAMP (cyclic adenosine monophosphate) in the cell lysate was determined using AlphaScreen™ methodology. The frozen cell plate was thawed for 20 minutes on a plate shaker then 10 μL of the cell lysate was transferred to a 96-well white plate. 40 μL of mixed AlphaScreen™ detection beads pre-incubated with biotinylated cAMP, was added to each well and the plate incubated at room temperature for 10 hours in the dark. The AlphaScreen™ signal was measured using an EnVision spectrophotometer (Perkin-Elmer Inc.) with the recommended manufacturer's settings. cAMP concentrations were determined by reference to a calibration curve determined in the same experiment using standard cAMP concentrations. Concentration response curves for agonists were constructed and data was fitted to a four parameter logistic equation to determine both the pEC50 and Intrinsic Activity. Intrinsic Activity was expressed as a fraction relative to the maximum activity determined for formoterol in each experiment.

[2] = biological target: T3, recombinant human α1D receptor (Homo sapiens, UniProt P25100); assay: Adrenergic α1D selectivity binding assay ([3H]-prazosin); details: inhibition of [3H]-prazosin (0.3 nM) binding, HEK293 membranes; read-out: α1 bind pIC50 (converted)
T3 construct: expressed in transfected cells; host or cells: HEK293
T3 sequence (P25100 1-572): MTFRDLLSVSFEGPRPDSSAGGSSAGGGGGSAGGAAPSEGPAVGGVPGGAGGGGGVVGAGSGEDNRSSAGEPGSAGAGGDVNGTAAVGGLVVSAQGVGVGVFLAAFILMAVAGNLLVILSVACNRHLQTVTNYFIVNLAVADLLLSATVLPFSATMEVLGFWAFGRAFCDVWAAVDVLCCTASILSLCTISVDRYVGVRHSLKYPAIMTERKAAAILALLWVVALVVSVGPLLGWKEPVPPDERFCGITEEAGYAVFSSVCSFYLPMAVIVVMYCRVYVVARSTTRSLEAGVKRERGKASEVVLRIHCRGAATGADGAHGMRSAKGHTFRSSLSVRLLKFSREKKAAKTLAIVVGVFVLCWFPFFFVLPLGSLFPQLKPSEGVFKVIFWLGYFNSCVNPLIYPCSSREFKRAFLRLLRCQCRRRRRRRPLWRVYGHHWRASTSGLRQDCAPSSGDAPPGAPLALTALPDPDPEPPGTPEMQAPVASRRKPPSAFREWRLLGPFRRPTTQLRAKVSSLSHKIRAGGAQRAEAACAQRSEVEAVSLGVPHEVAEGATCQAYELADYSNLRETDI
Procedure: Membranes were prepared from human embryonic kidney 293 (HEK293) cells expressing recombinant human α1D receptor. These were diluted in Assay Buffer (50 mM HEPES, 1 mM EDTA, 0.1% gelatin, pH 7.4) to provide a final concentration of membranes that gave a clear window between maximum and minimum specific binding.
as §2, with “[^3H]-prazosin (0.3” for “[^125I]-Iodocyanopindolol (0.036”, “[^3H]-prazosin” for “[^125I]-Iodocyanopindolol”, “BMY7378” for “Propranolol”, “EDTA,” for “EDTA, 120 mM NaCl,”
as §3, with “[^3H]-prazosin” for “[^125I]-Iodocyanopindolol”

[3] = biological target: T4, recombinant human Dopamine Subtype D2s receptors (Homo sapiens, UniProt P14416); assay: Dopamine D2 selectivity binding assay ([3H]-spiperone); details: inhibition of [3H]-spiperone (0.16 nM) binding; read-out: D2 bind pIC50 (converted)
T4 construct: purchased Perkin Elmer
T4 sequence (P14416 1-414 isoform P14416-2): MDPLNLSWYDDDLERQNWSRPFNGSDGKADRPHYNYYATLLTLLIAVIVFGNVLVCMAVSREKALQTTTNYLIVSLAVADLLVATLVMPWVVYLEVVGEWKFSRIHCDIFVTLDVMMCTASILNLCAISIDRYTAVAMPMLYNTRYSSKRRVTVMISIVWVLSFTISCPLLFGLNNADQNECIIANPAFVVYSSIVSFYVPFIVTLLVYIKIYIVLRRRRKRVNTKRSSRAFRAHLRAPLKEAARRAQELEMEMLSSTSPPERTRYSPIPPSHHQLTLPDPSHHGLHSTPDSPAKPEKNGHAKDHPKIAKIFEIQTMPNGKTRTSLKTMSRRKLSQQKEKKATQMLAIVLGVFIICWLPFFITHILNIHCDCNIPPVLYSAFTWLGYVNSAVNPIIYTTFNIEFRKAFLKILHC
Procedure: as §1, with “Dopamine Subtype D2s” for “adrenergic beta 1”, “Perkin Elmer.” for “Euroscreen.”
Assays were performed in U-bottomed 96-well polypropylene plates. 30 μL [^3H]-spiperone (0.16 nM final concentration) and 30 μL of test compound (10× final concentration) were added to each test well. For each assay plate 8 replicates were obtained for [^3H]-spiperone binding in the presence of 30 μL vehicle (10% (v/v) DMSO in Assay Buffer; defining maximum binding) or 30 μL Haloperidol (10 μM final concentration; defining non-specific binding (NSB)). Membranes were then added to achieve a final volume of 300 μL. The plates were incubated for 2 hours at room temperature and then filtered onto PEI coated GF/B filter plates, pre-soaked for 1 hour in Assay Buffer, using a 96-well plate Tomtec cell harvester. Five washes with 250 μL wash buffer (50 mM HEPES, 1 mM EDTA, 120 mM NaCl, pH 7.4) were performed at 4° C. to remove unbound radioactivity. The plates were dried then sealed from underneath using Packard plate sealers and MicroScint-O (50 μL) was added to each well. The plates were sealed (TopSeal A) and filter-bound radioactivity was measured with a scintillation counter (TopCount, Packard BioScience) using a 3-minute counting protocol.
as §3, with “[^3H]-spiperone” for “[^125I]-Iodocyanopindolol”

IC50 [1] | EC50 (Adrenergic β2) | β2 Int Act (Adrenergic β2) | IC50 [2] | IC50 [3] | SMILES
1.58 µM | 0.00794 µM | 0.59 | 0.631 µM |  | O=C(CCNCCc1ccc(Cl)c(Cl)c1)N(CCNCCc1ccc(O)c2[nH]c(=O)sc12)C1CCC(F)(F)CC1 [Example 49, N^3-[2-(3,4-Dichlorophenyl)ethyl]-N^1-(4,4-difluorocyclohexyl)-N^1-(2-{[2-(4-hydroxy-2-oxo-2,3-dihydro-1,3-benzothiazol-7-yl)ethyl]amino}ethyl)-β-alaninamide bis-trifluoroacetic acid salt]
 | 0.251 µM | 0.58 | 0.631 µM | 1.26 µM | CC(=O)OCC(C)(C)CN(CCNCCc1ccc(O)c2[nH]c(=O)sc12)C(=O)CCNCCc1ccc(Cl)cc1 [Example 39, 3-[{N-[2-(4-Chlorophenyl)ethyl]-β-alanyl}(2-{[2-(4-hydroxy-2-oxo-2,3-dihydro-1,3-benzothiazol-7-yl)ethyl]amino}ethyl)amino]-2,2-dimethylpropyl acetate diacetic acid salt]
 | 0.02 µM | 0.78 | 0.251 µM | 0.398 µM | CC(C)N(CCNCCc1ccc(O)c2[nH]c(=O)sc12)C(=O)CCNCCc1ccccc1 [Example 1, N-(2-{[2-(4-Hydroxy-2-oxo-2,3-dihydro-1,3-benzothiazol-7-yl)ethyl]amino}ethyl)-N-isopropyl-N^3-(2-phenylethyl)-β-alaninamide bis-trifluoroacetic acid salt]
